Source: ChEMBL document CHEMBL1201862, “PubChem BioAssay data set” (2004)
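All cell lines were grown in 96-well plates and treated with compound for 48 hours. The concentration for 50% growth inhibition is given as GI50.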 The source made the active and inactive calls. Rule as the data show it: active = GI50 up to about 1.1 µM and inactive = higher.

Columns and labels:
Assay in all cases: growth of human tumour cells (NCI), 48 h
CAKI-1 = tested on: CAKI-1
HCT-116 = tested on: HCT-116
HOP-62 = tested on: HOP-62
HT-29 = tested on: HT-29
IGROV-1 = tested on: IGROV-1
K562 = tested on: K562
KM12 = tested on: KM12
Malme-3M = tested on: Malme-3M
NCI-H226 = tested on: NCI-H226
OVCAR-3 = tested on: OVCAR-3
OVCAR-5 = tested on: OVCAR-5
RXF 393 = tested on: RXF 393
SF-268 = tested on: SF-268
SK-MEL-28 = tested on: SK-MEL-28
SK-MEL-2 = tested on: SK-MEL-2
SK-MEL-5 = tested on: SK-MEL-5
SK-OV-3 = tested on: SK-OV-3
TK-10 = tested on: TK-10
UACC-257 = tested on: UACC-257
UO-31 = tested on: UO-31

Measured: GI50

COc1ccc(C2C(N)=NCC2c2ccccn2)cc1 (stereo not given)
inactive: CAKI-1 > 100 µM | HCT-116 > 100 µM | HOP-62 > 100 µM | HT-29 > 100 µM | IGROV-1 > 100 µM | K562 > 100 µM | KM12 > 100 µM | Malme-3M > 100 µM | NCI-H226 > 100 µM | OVCAR-3 > 100 µM | OVCAR-5 > 100 µM | RXF 393 > 100 µM | SF-268 > 100 µM | SK-MEL-28 > 100 µM | SK-MEL-2 > 100 µM | SK-MEL-5 > 100 µM | SK-OV-3 > 100 µM | TK-10 > 100 µM | UACC-257 > 100 µM | UO-31 > 100 µM
